In publication PMC9950745, “A novel promising laccase from the psychrotolerant and halotolerant Antarctic marine Halomonas sp. M68 strain” (Frontiers in Microbiology, 2023) one finds Km data, which are given here for one compound.

The test system of this experiment is T1, Ant laccase.
T1 construct: gene copA
The experiment is described as follows: spectrophotometric oxidation assay at […] nm, Michaelis-Menten fit. The class given is biochemical. The conditions noted are these: 50 mM sodium acetate, pH 5.0, 20°C; partially purified preparation SNP30.

Take `CCn1c(=NN=c2sc3cc(S(=O)(=O)O)ccc3n2CC)sc2cc(S(=O)(=O)O)ccc21` [ABTS, 2,2′-azino-bis (3-ethylbenzothiazoline-6-sulfonic acid)]: the Km is about 2000 µM.
